According to patent publication US20150105252A1, “SUBSTITUTED PYRAZOLES AS HERBICIDES” (E I DU PONT DE NEMOURS AND COMPANY, priority 2013, published 2015):

Experiments:
[1] = system: buckwheat, wild; assay: Test D preemergence; type: in vivo, Polygonum convolvulus; conditions: scale 0 to 100
Source text: (§1) Seeds of plant species selected from bluegrass (annual bluegrass, Poa annua), blackgrass (Alopecurus myosuroides), canarygrass (littleseed canarygrass, Phalaris minor), chickweed (common chickweed, Stellaria media), galium (catchweed bedstraw, Galium aparine), bromegrass, downy (downy bromegrass, Bromus tectorum), field poppy (Papaver rhoeas), field violet (Viola arvensis), foxtail, green (green foxtail, Setaria viridis), deadnettle (henbit deadnettle, Lamium amplexicaule), ryegrass, Italian (Italian ryegrass, Lolium multiflorum), kochia (Kochia scoparia), lambsquarters (Chenopodium album), oilseed rape (Brassica napus), pigweed (redroot pigweed, Amaranthus retroflexus), chamomile (scentless chamomile, Matricaria inodora), speedwell (bird's-eye speedwell, Veronica persica), barley, spring (spring barley, Hordeum vulgare), wheat, spring (spring wheat, Triticum aestivum), buckwheat, wild (wild buckwheat, Polygonum convolvulus), mustard, wild (wild mustard, Sinapis arvensis), oat, wild (wild oat, Avena fatua), radish, wild (wild radish, Raphanus raphanistrum), windgrass (Apera spica-venti), Russian thistle (Salsola kali), barley, winter (winter barley, Hordeum vulgare), and wheat, winter (winter wheat, Triticum aestivum) were planted into a silt loam soil and treated preemergence with test chemicals formulated in a non-phytotoxic solvent mixture which included a surfactant.
(§2) At the same time, these species were planted in pots containing Redi-Earth® planting medium (Scotts Company, 14111 Scottslawn Road, Marysville, Ohio 43041) comprising spaghnum peat moss, vermiculite, wetting agent and starter nutrients and treated with postemergence applications of the test chemicals formulated in the same manner. Plants ranged in height from 2 to 18 cm (1- to 4-leaf stage). Treated plants and controls were maintained in a controlled growth environment for 14 to 21 days after which time all species were compared to controls and visually evaluated. Plant response ratings, summarized in Table D, are based on a scale of 0 to 100 where 0 is no effect and 100 is complete control. A dash (-) response means no test result.

[2] = system: deadnettle; assay: Test D postemergence; type: in vivo, Lamium amplexicaule; conditions: scale 0 to 100
Source text: as §1, §2

[3] = system: windgrass; assay: Test D preemergence; type: in vivo, Apera spica-venti; conditions: scale 0 to 100
Source text: as §1, §2

[4] = system: kochia; assay: Test D preemergence; type: in vivo, Kochia scoparia; conditions: scale 0 to 100
Source text: as §1, §2

[5] = system: bluegrass; assay: Test D postemergence; type: in vivo, Poa annua; conditions: scale 0 to 100
Source text: as §1, §2

[6] = system: bromegrass, downy; assay: Test D postemergence; type: in vivo, Bromus tectorum; conditions: scale 0 to 100
Source text: as §1, §2

[7] = system: windgrass; assay: Test D postemergence; type: in vivo, Apera spica-venti; conditions: scale 0 to 100
Source text: as §1, §2

[8] = system: chamomile; assay: Test D postemergence; type: in vivo, Matricaria inodora; conditions: scale 0 to 100
Source text: as §1, §2

[9] = system: field violet; assay: Test D postemergence; type: in vivo, Viola arvensis; conditions: scale 0 to 100
Source text: as §1, §2

[10] = system: blackgrass; assay: Test D postemergence; type: in vivo, Alopecurus myosuroides; conditions: scale 0 to 100
Source text: as §1, §2

[11] = system: arrowleaf sida; assay: Test F preemergence; type: in vivo, Sida rhombifolia
Source text: (§3) Seeds of plant species selected from corn (Zea mays), soybean (Glycine max), velvetleaf (Abutilon theophrasti), lambsquarters (Chenopodium album), wild poinsettia (Euphorbia heterophylla), pigweed, palmer (palmer pigweed, Amaranthus palmeri), common waterhemp (Amaranthus rudis), surinam grass (Brachiaria decumbens), large crabgrass (Digitaria sanguinalis), crabgrass, Brazil (Brazilian crabgrass, Digitaria horizontalis), fall panicum (Panicum dichotomiflorum), giant foxtail (Setaria faberii), green foxtail (Setaria viridis), goosegrass (Eleusine indica), johnsongrass (Sorghum halepense), common ragweed (Ambrosia elation), barnyardgrass (Echinochloa crus-galli), southern sandbur (Cenchrus echinatus), arrowleaf sida (Sida rhombifolia), Italian ryegrass (Lolium multiflorum), dayflower, VA (Virginia (VA) dayflower, Commelina virginica), field bindweed (Convolvulus arvensis), cocklebur (common cocklebur, Xanthium strumarium), morningglory (Ipomoea coccinea), nightshade (eastern black nightshade, Solanum ptycanthum), kochia (Kochia scoparia), yellow nutsedge (Cyperus esculentus), and hairy beggarticks (Bidens pilosa), were planted into a silt loam soil and treated preemergence with test chemicals formulated in a non-phytotoxic solvent mixture which included a surfactant.
(§4) At the same time, plants from these crop and weed species and also horseweed (Canada horseweed, Conyza canadensis), smartweed (ladysthumb smartweed, Polygonum persicaria), waterhemp_RES1, (ALS & Triazine resistant common waterhemp, Amaranthus rudis), and waterhemp_RES2, (ALS & HPPD resistant common waterhemp, Amaranthus rudis) were treated with postemergence applications of test chemicals formulated in the same manner. Plants ranged in height from 2 to 18 cm for postemergence treatments (1- to 4-leaf stage). Treated plants and controls were maintained in a greenhouse for 14 to 21 days, after which time all species were compared to controls and visually evaluated. Plant response ratings, summarized in Table F, are based on a scale of 0 to 100 where 0 is no effect and 100 is complete control. A dash (-) response means no test result.

[12] = system: common ragweed; assay: Test F preemergence; type: in vivo, Ambrosia elation
Source text: as §3, §4

[13] = system: velvetleaf; assay: Test F preemergence; type: in vivo, Abutilon theophrasti
Source text: as §3, §4

[14] = system: yellow nutsedge; assay: Test F preemergence; type: in vivo, Cyperus esculentus
Source text: as §3, §4

[15] = Preemergence, 31 g ai/ha, scale 0 to 100
[16] = Preemergence, 62 g ai/ha, scale 0 to 100
[17] = Preemergence, 125 g ai/ha, scale 0 to 100
[18] = preemergence, 8 g ai/ha, scale 0 to 100, 100 is complete control
[19] = preemergence, 16 g ai/ha, scale 0 to 100, 100 is complete control
[20] = Preemergence, 16 g ai/ha, scale 0 to 100
[21] = preemergence, scale 0 to 100, 100 is complete control
[22] = Preemergence, 250 g ai/ha, scale 0 to 100

CCc1cc(C(=O)NC(C)C)nn1Cc1ccnc(C(F)(F)F)c1 [Compound 103]
Plant response rating, Buckwheat, Wild ([1]; 31 g ai/ha): 75 | Plant response rating, Buckwheat, Wild ([1]; 62 g ai/ha): 100 | Plant response rating, Buckwheat, Wild ([1]; 125 g ai/ha): 100 | Plant response rating, Buckwheat, Wild ([1]; 250 g ai/ha): 100 | Deadnettle plant response rating ([2]; Postemergence, 31 g ai/ha): 20 | Deadnettle plant response rating ([2]; Postemergence, 125 g ai/ha): 25 | Deadnettle plant response rating ([2]; Postemergence, 250 g ai/ha): 30 | Deadnettle plant response rating ([2]; postemergence, 62 g ai/ha): 25 | Plant response rating, Windgrass ([3]; 31 g ai/ha): 15 | Plant response rating, Windgrass ([3]; 62 g ai/ha): 80 | Plant response rating, Windgrass ([3]; 125 g ai/ha): 100 | Plant response rating, Windgrass ([3]; 250 g ai/ha): 100 | Plant response rating, Kochia ([4]; 31 g ai/ha): 10 | Plant response rating, Kochia ([4]; 62 g ai/ha): 65 | Plant response rating, Kochia ([4]; 125 g ai/ha): 85 | Plant response rating, Kochia ([4]; 250 g ai/ha): 100 | Bluegrass plant response rating ([5]; Postemergence, 31 g ai/ha): 10 | Bluegrass plant response rating ([5]; Postemergence, 125 g ai/ha): 20 | Bluegrass plant response rating ([5]; Postemergence, 250 g ai/ha): 30 | Bluegrass plant response rating ([5]; postemergence, 62 g ai/ha): 25 | Bromegrass, Downy plant response rating ([6]; Postemergence, 31 g ai/ha): 5 | Bromegrass, Downy plant response rating ([6]; Postemergence, 125 g ai/ha): 15 | Bromegrass, Downy plant response rating ([6]; Postemergence, 250 g ai/ha): 15 | Bromegrass, Downy plant response rating ([6]; postemergence, 62 g ai/ha): 10 | Windgrass plant response rating ([7]; Postemergence, 31 g ai/ha): 10 | Windgrass plant response rating ([7]; Postemergence, 125 g ai/ha): 25 | Windgrass plant response rating ([7]; Postemergence, 250 g ai/ha): 35 | Windgrass plant response rating ([7]; postemergence, 62 g ai/ha): 20 | Chamomile plant response rating ([8]; Postemergence, 31 g ai/ha): 10 | Chamomile plant response rating ([8]; Postemergence, 125 g ai/ha): 30 | Chamomile plant response rating ([8]; Postemergence, 250 g ai/ha): 60 | Chamomile plant response rating ([8]; postemergence, 62 g ai/ha): 30 | Field Violet plant response rating ([9]; Postemergence, 31 g ai/ha): 35 | Field Violet plant response rating ([9]; Postemergence, 125 g ai/ha): 60 | Field Violet plant response rating ([9]; Postemergence, 250 g ai/ha): 60 | Field Violet plant response rating ([9]; postemergence, 62 g ai/ha): 55 | Blackgrass plant response rating ([10]; Postemergence, 31 g ai/ha): 5 | Blackgrass plant response rating ([10]; Postemergence, 125 g ai/ha): 20 | Blackgrass plant response rating ([10]; Postemergence, 250 g ai/ha): 35 | Blackgrass plant response rating ([10]; postemergence, 62 g ai/ha): 10

CCOc1cc(C(=O)NCC(F)(F)F)nn1Cc1ccnc(C(F)(F)F)c1 [Compound 104]
Plant response rating, Arrowleaf Sida [11, 15]: 10 | Plant response rating, Arrowleaf Sida [11, 16]: 20 | Plant response rating, Arrowleaf Sida [11, 17]: 30 | Plant response rating, Arrowleaf Sida [11, 18]: 0 | Plant response rating, Arrowleaf Sida [11, 19]: 0 | Plant response rating, Common Ragweed [12, 15]: 95 | Plant response rating, Common Ragweed [12, 16]: 100 | Plant response rating, Common Ragweed [12, 17]: 100 | Plant response rating, Common Ragweed [12, 18]: 0 | Plant response rating, Common Ragweed [12, 19]: 0 | Plant response rating, Velvetleaf [13, 15]: 50 | Plant response rating, Velvetleaf [13, 16]: 95 | Plant response rating, Velvetleaf [13, 17]: 100 | Plant response rating, Velvetleaf [13, 18]: 0 | Plant response rating, Velvetleaf [13, 19]: 0 | Plant response rating, Yellow Nutsedge [14, 15]: 25 | Plant response rating, Yellow Nutsedge [14, 16]: 60 | Plant response rating, Yellow Nutsedge [14, 17]: 75 | Plant response rating, Yellow Nutsedge [14, 18]: 0 | Plant response rating, Yellow Nutsedge [14, 19]: 0

CCNC(=O)c1cc(CCCl)n(Cc2ccnc(C(F)(F)F)c2)n1 [Compound 179]
Plant response rating, Arrowleaf Sida [11, 15]: 0 | Plant response rating, Arrowleaf Sida [11, 16]: 0 | Plant response rating, Arrowleaf Sida [11, 17]: 35 | Plant response rating, Arrowleaf Sida [11, 18]: 0 | Plant response rating, Common Ragweed [12, 15]: 40 | Plant response rating, Common Ragweed [12, 16]: 65 | Plant response rating, Common Ragweed [12, 17]: 80 | Plant response rating, Common Ragweed [12, 18]: 0 | Plant response rating, Velvetleaf [13, 15]: 0 | Plant response rating, Velvetleaf [13, 16]: 20 | Plant response rating, Velvetleaf [13, 17]: 40 | Plant response rating, Velvetleaf [13, 18]: 0 | Plant response rating, Yellow Nutsedge [14, 15]: 0 | Plant response rating, Yellow Nutsedge [14, 16]: 10 | Plant response rating, Yellow Nutsedge [14, 17]: 60 | Plant response rating, Yellow Nutsedge [14, 18]: 0

CCNC(=O)c1cc(CC)n(Cc2ccnc(C(F)(F)F)c2)n1 [Compound 196]
Plant response rating, Arrowleaf Sida [11, 20]: 0 | Plant response rating, Arrowleaf Sida [11, 16]: 5 | Plant response rating, Arrowleaf Sida [11, 17]: 70 | Plant response rating, Arrowleaf Sida [11, 18]: 0 | Plant response rating, Arrowleaf Sida [11, 19]: 0 | Plant response rating, Common Ragweed [12, 20]: 65 | Plant response rating, Common Ragweed [12, 16]: 70 | Plant response rating, Common Ragweed [12, 17]: 90 | Plant response rating, Common Ragweed [12, 18]: 0 | Plant response rating, Common Ragweed [12, 19]: 30 | Plant response rating, Velvetleaf [13, 16]: 20 | Plant response rating, Velvetleaf [13, 17]: 35 | Plant response rating, Velvetleaf [13, 18]: 0 | Plant response rating, Velvetleaf [13, 19]: 0 | Plant response rating, Velvetleaf [13, 21]: 0 | Plant response rating, Yellow Nutsedge [14, 16]: 20 | Plant response rating, Yellow Nutsedge [14, 17]: 50 | Plant response rating, Yellow Nutsedge [14, 18]: 0 | Plant response rating, Yellow Nutsedge [14, 19]: 0

Cc1cc(C(=O)NC(C)C)nn1Cc1ccnc(C(F)(F)F)c1 [Compound 197]
Plant response rating, Arrowleaf Sida [11, 20]: 5 | Plant response rating, Arrowleaf Sida [11, 16]: 5 | Plant response rating, Arrowleaf Sida [11, 17]: 10 | Plant response rating, Arrowleaf Sida [11, 18]: 0 | Plant response rating, Arrowleaf Sida [11, 19]: 5 | Plant response rating, Common Ragweed [12, 20]: 35 | Plant response rating, Common Ragweed [12, 16]: 40 | Plant response rating, Common Ragweed [12, 17]: 80 | Plant response rating, Common Ragweed [12, 18]: 0 | Plant response rating, Common Ragweed [12, 19]: 0 | Plant response rating, Velvetleaf [13, 16]: 15 | Plant response rating, Velvetleaf [13, 17]: 25 | Plant response rating, Velvetleaf [13, 18]: 0 | Plant response rating, Velvetleaf [13, 19]: 0 | Plant response rating, Velvetleaf [13, 21]: 0 | Plant response rating, Yellow Nutsedge [14, 16]: 5 | Plant response rating, Yellow Nutsedge [14, 17]: 25 | Plant response rating, Yellow Nutsedge [14, 18]: 0 | Plant response rating, Yellow Nutsedge [14, 19]: 0

CCc1cc(C(=O)NC2CC2)nn1Cc1ccnc(OCC(F)(F)F)c1 [Compound 200]
Plant response rating, Arrowleaf Sida [11, 22]: 80 | Plant response rating, Arrowleaf Sida [11, 20]: 0 | Plant response rating, Arrowleaf Sida [11, 16]: 5 | Plant response rating, Arrowleaf Sida [11, 17]: 35 | Plant response rating, Arrowleaf Sida [11, 19]: 0 | Plant response rating, Common Ragweed [12, 22]: 30 | Plant response rating, Common Ragweed [12, 20]: 0 | Plant response rating, Common Ragweed [12, 16]: 0 | Plant response rating, Common Ragweed [12, 17]: 5 | Plant response rating, Common Ragweed [12, 19]: 0 | Plant response rating, Velvetleaf [13, 22]: 85 | Plant response rating, Velvetleaf [13, 16]: 20 | Plant response rating, Velvetleaf [13, 17]: 80 | Plant response rating, Velvetleaf [13, 19]: 0 | Plant response rating, Velvetleaf [13, 21]: 0 | Plant response rating, Yellow Nutsedge [14, 22]: 35 | Plant response rating, Yellow Nutsedge [14, 16]: 0 | Plant response rating, Yellow Nutsedge [14, 17]: 25 | Plant response rating, Yellow Nutsedge [14, 19]: 0
